Where “and” joins values, the source holds several entries; their conditions need not be identical. Identical values can stand only once. Square brackets hold non-standard residues; d marks the D form. Peptide text beside a SMILES is read from it. ξ: configuration not given here. pY = N[C@@H](Cc1ccc(OP(=O)(O)O)cc1)C(=O)O; Ile(3ξ) = CCC(C)[C@H](N)C(=O)O
Legend:
[1] = molecular target: EGFR (human) (UniProt P00533)
[2] = molecular target: EGFR (human) (UniProt P00533); settings: a431
[3] = molecular target: PIK3CB;PIK3CG;PIK3CD;PIK3CA (human) (UniProt P48736); assay: Assessment of PIK3CA/PIK3CB/PIK3CD/PIK3CG Kinase Activity
[4] = molecular target: PIK3CB;PIK3CD;PIK3CA (human) (UniProt O00329); assay: Assessment of PI3K Kinase Activity
[5] = molecular target: EGFR (human) (UniProt P00533); settings: a431; remark: listed apart in the source
[6] = molecular target: EGFR (human) (UniProt P00533); settings: a431; remark: listed apart in the source
[7] = molecular target: EGFR (human) (UniProt P00533); settings: a431; remark: listed apart in the source
[8] = molecular target: EGFR (human) (UniProt P00533); settings: hn5
[9] = molecular target: EGFR (human) (UniProt P00533); remark: listed apart in the source
[10] = molecular target: EGFR (human) (UniProt P00533); settings: a431; remark: listed apart in the source
[11] = molecular target: MAPK14 (human) (UniProt Q16539); assay: Inhibition of MAPK14 Kinase Activity
[12] = molecular target: EGFR (murine) (UniProt P00533); settings: nih3t3
[13] = molecular target: EGFR (Balb/c mice) (UniProt P00533)
[14] = molecular target: EGFR (UniProt P00533)
[15] = molecular target: EGFR (human) (UniProt P00533); remark: listed apart in the source
[16] = molecular target: MAPK14 (human) (UniProt Q16539); assay: Cellular Inhibition of MAPK14 Kinase in A549 Cells
[17] = molecular target: MAPK14 (human) (UniProt Q16539); assay: p38 --- TNF Inhibition (PBMC cells)
[18] = molecular target: PIK3CA (human) (UniProt P42336); assay: Assesment of Cell Proliferation of IGROV-1 Cells Using SRB Assay
[19] = molecular target: PIK3CA (human) (UniProt P42336); assay: Inhibition of PIK3CA Kinase Activity
[20] = molecular target: PIK3CB (Human) (UniProt P42338); assay: Inhibition of PIK3CB Kinase (ATP Loss) Activity
[21] = molecular target: EGFR (human) (UniProt P00533); remark: listed apart in the source
[22] = molecular target: MAPK14 (human) (UniProt Q16539); assay: p38-mediated TNF-alpha Inhibition (LPS-Stimulated PBMCs); settings: pbmc
[23] = molecular target: MAPK14 (human) (UniProt Q16539); assay: Cell-Based Assay; settings: a375
[24] = molecular target: EGFR (UniProt P00533); remark: listed apart in the source
[25] = molecular target: EGFR (human) (UniProt P00533); settings: kb
[26] = molecular target: EGFR (human) (UniProt P00533); remark: listed apart in the source

PIK3CB;PIK3CD;PIK3CA (human), sequence (O00329 whole entry, looked up): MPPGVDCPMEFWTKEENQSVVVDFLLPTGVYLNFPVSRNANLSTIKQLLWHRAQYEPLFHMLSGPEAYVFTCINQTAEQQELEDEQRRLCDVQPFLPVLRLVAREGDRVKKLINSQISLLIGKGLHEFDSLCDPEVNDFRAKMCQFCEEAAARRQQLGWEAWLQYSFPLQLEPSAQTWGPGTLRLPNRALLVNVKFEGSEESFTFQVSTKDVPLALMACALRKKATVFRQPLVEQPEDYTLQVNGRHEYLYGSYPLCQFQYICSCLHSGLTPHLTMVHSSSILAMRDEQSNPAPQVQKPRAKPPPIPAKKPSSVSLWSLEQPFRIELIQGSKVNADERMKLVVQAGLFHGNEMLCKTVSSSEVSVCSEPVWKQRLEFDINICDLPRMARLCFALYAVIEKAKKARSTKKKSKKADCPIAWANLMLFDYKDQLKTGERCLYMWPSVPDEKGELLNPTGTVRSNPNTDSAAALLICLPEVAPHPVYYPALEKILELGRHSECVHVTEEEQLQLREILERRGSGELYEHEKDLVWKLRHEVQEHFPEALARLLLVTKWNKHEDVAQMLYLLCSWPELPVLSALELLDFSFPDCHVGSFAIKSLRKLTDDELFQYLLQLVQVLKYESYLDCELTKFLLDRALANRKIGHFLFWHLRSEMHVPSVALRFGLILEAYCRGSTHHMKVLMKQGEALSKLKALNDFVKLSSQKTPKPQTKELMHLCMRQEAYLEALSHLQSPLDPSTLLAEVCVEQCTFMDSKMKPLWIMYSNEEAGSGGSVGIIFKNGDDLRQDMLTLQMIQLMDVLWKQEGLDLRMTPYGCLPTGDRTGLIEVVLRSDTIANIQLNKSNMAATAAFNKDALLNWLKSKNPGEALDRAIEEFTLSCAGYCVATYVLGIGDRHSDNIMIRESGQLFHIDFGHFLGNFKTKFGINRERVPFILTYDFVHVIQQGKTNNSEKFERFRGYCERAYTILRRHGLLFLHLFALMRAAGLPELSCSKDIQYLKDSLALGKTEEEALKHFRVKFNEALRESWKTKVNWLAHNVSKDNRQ
MAPK14 (human), sequence (Q16539 whole entry, looked up): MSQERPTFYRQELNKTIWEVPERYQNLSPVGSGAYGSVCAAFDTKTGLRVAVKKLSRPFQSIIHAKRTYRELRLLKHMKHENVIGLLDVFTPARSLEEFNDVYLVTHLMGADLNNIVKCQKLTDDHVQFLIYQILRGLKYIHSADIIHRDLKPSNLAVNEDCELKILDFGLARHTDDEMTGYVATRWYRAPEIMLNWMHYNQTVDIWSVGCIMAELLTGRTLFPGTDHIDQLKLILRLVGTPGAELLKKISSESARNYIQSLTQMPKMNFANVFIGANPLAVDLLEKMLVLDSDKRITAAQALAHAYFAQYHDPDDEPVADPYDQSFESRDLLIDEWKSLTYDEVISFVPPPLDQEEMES
PIK3CA (human), sequence (P42336 whole entry, looked up): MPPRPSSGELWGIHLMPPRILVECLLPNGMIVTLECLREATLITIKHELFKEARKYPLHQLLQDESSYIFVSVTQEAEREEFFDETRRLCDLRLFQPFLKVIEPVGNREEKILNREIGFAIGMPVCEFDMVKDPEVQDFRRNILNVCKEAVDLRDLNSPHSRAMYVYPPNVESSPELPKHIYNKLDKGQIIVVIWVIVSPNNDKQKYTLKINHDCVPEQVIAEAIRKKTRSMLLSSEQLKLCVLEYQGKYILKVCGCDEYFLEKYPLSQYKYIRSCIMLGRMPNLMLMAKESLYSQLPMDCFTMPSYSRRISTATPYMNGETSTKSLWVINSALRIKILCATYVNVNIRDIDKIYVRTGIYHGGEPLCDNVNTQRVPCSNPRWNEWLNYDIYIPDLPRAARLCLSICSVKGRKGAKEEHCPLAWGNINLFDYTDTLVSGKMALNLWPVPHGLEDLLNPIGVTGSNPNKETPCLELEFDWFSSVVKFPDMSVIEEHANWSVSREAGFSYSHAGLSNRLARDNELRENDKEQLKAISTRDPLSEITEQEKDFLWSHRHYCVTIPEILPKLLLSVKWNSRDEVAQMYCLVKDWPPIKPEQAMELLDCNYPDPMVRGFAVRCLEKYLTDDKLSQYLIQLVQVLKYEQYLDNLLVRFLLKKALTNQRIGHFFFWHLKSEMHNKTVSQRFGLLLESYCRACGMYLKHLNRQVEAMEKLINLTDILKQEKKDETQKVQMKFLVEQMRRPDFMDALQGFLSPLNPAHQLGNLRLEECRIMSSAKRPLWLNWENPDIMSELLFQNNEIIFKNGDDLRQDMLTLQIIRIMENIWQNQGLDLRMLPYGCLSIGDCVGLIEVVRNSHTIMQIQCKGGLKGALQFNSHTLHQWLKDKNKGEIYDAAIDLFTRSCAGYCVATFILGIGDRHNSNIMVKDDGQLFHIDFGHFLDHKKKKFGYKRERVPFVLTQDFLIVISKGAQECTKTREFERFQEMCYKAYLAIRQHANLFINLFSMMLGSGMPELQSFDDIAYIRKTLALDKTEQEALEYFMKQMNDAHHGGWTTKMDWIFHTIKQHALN
EGFR (human), sequence (P00533 whole entry, looked up): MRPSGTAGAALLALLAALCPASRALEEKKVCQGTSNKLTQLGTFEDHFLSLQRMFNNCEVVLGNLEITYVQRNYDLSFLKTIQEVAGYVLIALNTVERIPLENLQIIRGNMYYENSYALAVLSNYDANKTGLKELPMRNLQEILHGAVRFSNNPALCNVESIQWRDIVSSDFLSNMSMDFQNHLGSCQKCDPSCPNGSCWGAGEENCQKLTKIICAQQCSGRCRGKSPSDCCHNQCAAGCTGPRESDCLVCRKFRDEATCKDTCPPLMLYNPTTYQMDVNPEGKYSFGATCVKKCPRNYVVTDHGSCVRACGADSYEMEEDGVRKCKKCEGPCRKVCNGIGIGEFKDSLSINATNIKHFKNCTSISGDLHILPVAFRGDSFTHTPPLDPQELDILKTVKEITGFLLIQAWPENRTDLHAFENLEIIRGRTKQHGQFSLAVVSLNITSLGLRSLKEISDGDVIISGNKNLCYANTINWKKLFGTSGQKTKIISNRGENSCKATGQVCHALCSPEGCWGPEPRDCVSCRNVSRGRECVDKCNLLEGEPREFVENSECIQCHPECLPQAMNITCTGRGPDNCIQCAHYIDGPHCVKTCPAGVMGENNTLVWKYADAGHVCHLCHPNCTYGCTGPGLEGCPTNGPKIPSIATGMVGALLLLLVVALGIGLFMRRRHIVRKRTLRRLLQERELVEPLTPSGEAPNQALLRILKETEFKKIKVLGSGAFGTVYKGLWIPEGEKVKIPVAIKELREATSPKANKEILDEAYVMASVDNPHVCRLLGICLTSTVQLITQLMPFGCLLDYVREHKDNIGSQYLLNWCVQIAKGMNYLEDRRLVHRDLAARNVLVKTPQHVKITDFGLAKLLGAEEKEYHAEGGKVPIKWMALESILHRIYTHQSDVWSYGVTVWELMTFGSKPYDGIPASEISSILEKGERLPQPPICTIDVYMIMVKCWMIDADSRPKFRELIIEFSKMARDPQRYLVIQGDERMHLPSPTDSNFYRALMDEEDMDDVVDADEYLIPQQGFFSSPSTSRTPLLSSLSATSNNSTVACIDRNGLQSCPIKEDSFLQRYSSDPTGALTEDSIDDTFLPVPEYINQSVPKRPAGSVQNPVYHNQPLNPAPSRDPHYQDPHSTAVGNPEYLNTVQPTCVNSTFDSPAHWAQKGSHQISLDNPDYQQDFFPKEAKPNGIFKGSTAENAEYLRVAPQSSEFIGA
EGFR, sequence (P00533 whole entry, looked up): as above

Work on C=C=CCCCCCOc1cc2c(Nc3ccc(F)c(Cl)c3)ncnc2cc1OC yielded an IC50 [1] of 0.00445 µM and a GI50 [2] of 0.586 µM.
COc1cnc2[nH]c3cnc(-c4cccnc4)cc3c2c1-c1ccc(NS(C)(=O)=O)cc1 was tested, and the IC50 [3] was 0.001 to 0.1 µM.
With Cc1cc(NC(=O)Nc2ccc(-c3nc(CS(C)(=O)=O)cc(N4CCOCC4)n3)cc2)no1 the IC50 [4] was 57.8 µM and 91.2 µM.
Nc1nc(Nc2ccc(Cl)cc2F)c2cc(Cc3cccc4ccccc34)[nH]c2n1 was tested, and the IC50 [5] was 46.7 µM and the IC50 [6] was > 200 µM.
CCOc1cc2ncc(C#N)c(Nc3ccc(OCc4ccccn4)c(Cl)c3)c2cc1NC(=O)/C=C/[C@@H]1CCCN1 gave an IC50 [7] of 0.003 µM.
Oc1ccc(-c2nc3ccc(O)cc3s2)cc1 was tested, and the IC50 [8] was 130 µM.
O=C(CO)N1CCC(c2[nH]nc(-c3ccc(Cl)cc3)c2-c2ccncn2)CC1 gave an IC50 [9] of 0.101 µM.
O=C(Cc1ccc(F)cc1)Nc1cc(SC[C@@H](O)CO)cc([N+](=O)[O-])c1 gave an IC50 [10] of 28.8 µM.
O=C(CO)N1CCC(c2[nH]nc(-c3ccc(Cl)cc3)c2-c2ccncc2)CC1 was tested, and the IC50 [9] was < 1 µM and the IC50 [11] was 0.111 µM.
For COc1cc2ncnc(Nc3cccc(Cl)c3)c2cc1OC, the IC50 [12] was < 0.015 µM, the LD50 [13] was > 200 mg/kg and the GI50 [2] was 0.302 µM.
In the case of CCC(C)[C@H](NC(=O)[C@H](CCC(=O)O)NC(=O)[C@H](CCC(=O)O)NC(=O)[C@H](Cc1ccc(OP(=O)(O)O)cc1)NC(C)=O)C(=O)N[C@@H](CCC(=O)O)C(=O)O (stereo partly drawn) (Ac-[pY]EE[Ile(3ξ)]E-OH), the IC50 [14] is reported as ≤ 0.5 µM.
In the case of Cn1c(NCc2cccc(C(F)(F)F)c2)cc(=O)n(C)c1=O, the IC50 [10] is reported as > 50 µM.
Compound CS(=O)(=O)Nc1ccc(-c2c(F)cnc3[nH]c4cnc(-c5cccnc5)cc4c23)cc1 has an IC50 [3] of 0.1 to 1 µM.
C=CC(=O)N1CCC[C@H](n2cnc3c(N)nc(Nc4ccc(N5CCCCC5)cc4)nc32)C1 showed an IC50 [15] of 0.35 µM.
In the case of COC(=O)N[C@@H](C)CNc1nccc(-c2cn(C(C)C)nc2-c2cc(Cl)cc(NS(C)(=O)=O)c2F)n1, the IC50 [16] is reported as 2.2 µM.
Compound O=c1ncn2nc(Sc3ccc(Cl)c(Cl)c3)ccc2c1-c1c(Cl)cccc1Cl has an IC50 [17] of 2.2 µM.
c1ccc(CCNc2nc(-c3ccc4cc[nH]c4c3)cc(N3CCOCC3)n2)nc1 gave a GI50 [18] of 3.6 µM and an IC50 [19] of 8.9 µM.
With O=S(=O)(Nc1cc(-c2ccc3cnccc3c2)cnc1Cl)c1ccc(F)cc1 the IC50 [20] was 40 µM.
In the case of COc1cc2c(Nc3ccc4[nH]c(C)cc4c3F)ncnc2cc1OCCCCCCC(=O)NO, the IC50 [21] is reported as ≤ 0.1 µM.
For Cc1ccccc1SC1=NN2CNC(=O)C(c3c(Cl)cccc3Cl)=C2C=C1, the IC50 [22] was 0.21 µM.
For Cc1cc2c(F)c(Nc3ncnc4cc(OCCCN5CCCC5)c(OCCCCCC(=O)NO)cc34)ccc2[nH]1, the IC50 [21] was ≤ 0.1 µM.
Compound CN(C)c1cc(-c2ccc3ncccc3c2)cnc1Cl has an IC50 [20] of 40 µM.
With Cc1ccccc1Cc1cc2c(Nc3ccc(Cl)cc3)nc(N)nc2[nH]1 the IC50 [5] was 5.6 µM and the IC50 [6] was 0.24 µM.
CS(=O)(=O)Cc1cc(N2CCOCC2)nc(-c2ccc(NS(C)(=O)=O)cc2)n1 gave an IC50 [4] of 54 µM.
CN(C)CCOc1ccc(-c2nc(-c3ccc4c(c3)CC/C4=N\O)c(-c3ccncc3)[nH]2)cc1 was tested, and the IC50 [23] was > 10 µM.
In the case of COc1cc2ncnc(Nc3ccccc3)c2cc1OC, the IC50 [24] is reported as 0.05 µM.
With COc1cc2ncnc(N(C)c3ccccc3)c2cc1OC the IC50 [24] was 4 µM.
In the case of CS(=O)(=O)Nc1cccc(-c2cc(OCc3ccccn3)nc(N3CCOCC3)n2)c1, the GI50 [18] is reported as 16 µM and the IC50 [19] is reported as > 10 µM.
In the case of O=S(=O)(CCc1cccc(C(F)(F)F)c1)Cc1cc(N2CCOCC2)nc(-c2ccccn2)n1, the IC50 [4] is reported as 6.8 µM.
In the case of COC(=O)NC[C@H](C)Nc1nccc(-c2cn(C(C)C)nc2-c2cc(Cl)cc(NS(C)(=O)=O)c2F)n1, the IC50 [16] is reported as 0.69 µM.
With CNC(=O)[C@@H]1C[C@@H](Oc2cc3c(Nc4cccc(Cl)c4F)ncnc3cc2OC)CCN1C the IC50 [25] was 0.061 µM.
Oc1cc(O)c2nc(-c3ccc(O)c(O)c3)sc2c1 was tested, and the IC50 [8] was 130 µM.
In the case of Cc1ccccc1Cc1cc2c(Nc3ccc(Cl)cc3F)nc(N)nc2[nH]1, the IC50 [5] is reported as > 200 µM and the IC50 [6] is reported as > 200 µM.
In the case of CN(c1ccc(N2CCOCC2)cc1)c1ncnc2nc(Nc3ccc(S(N)(=O)=O)cc3)sc12, the IC50 [26] is reported as 3.3 µM.

— the Kinase Knowledgebase extract (Sharma et al. 2016)
